Measurements as given in US20160317676A1, “METHODS AND COMPOSITIONS FOR DELIVERY OF NUCLEIC ACIDS” (Tekmira Pharmaceuticals Corporation, priority 2009, published 2016).
Where “and” joins values, the source holds several entries; their conditions need not be identical. Equal entries are not always repeated.

Key:
[1] = Determination of pKa of formulated lipids with the fluorescent probe TNS; conditions: for Lipid B pKa (±0.2): Lipid B by itself, formulation 40:10:40:10
Experimental: The pKa values for the different ionizable cationic lipids were determined essentially as described (Eastman et al., 1992 Biochemistry 31:4262-4268, which is incorporated by reference in its entirety) using the fluorescent probe 2-(p-toluidino)-6-naphthalenesulfonic acid (TNS), which is non-fluorescent in water but becomes appreciably fluorescent when bound to membranes. Vesicles composed of cationic lipid/DSPC/CH/PEG-c-DOMG (40:10:40:10 mole ratio) were diluted to 0.1 mM in buffers (130 mM NaCl, 10 mM CH3COONH4, 10 mM MES, 10 mM HEPES) of various pH values ranging from 2 to 11. An aliquot of the TNS aqueous solution (1 μM final) was added to the diluted vesicles and after a 30 second equilibration period the fluorescent of the TNS-containing solution was measured at excitation and emission wavelengths of 321 nm and 445 nm, respectively. The pKa of the cationic lipid-containing vesicles was determined by plotting the measured fluorescence against the pH of the solutions and fitting the data to a Sigmodial curve using the commercial graphing program IgorPro.

Factor VII = test: In vivo mouse Factor VII silencing model (FVII siRNA in lipid formulations, serum FVII chromogenic assay); design: species or system C57Bl/6 mice; conditions: for % residual FVII: 40% cationic lipid/10% DSPC/40% cholesterol/10% PEG-DMG, FIG. 4; for Lipid A ED50: Lipid A by itself; for ED50: dose giving 50% reduction in plasma FVII vs control animals, i.v. tail vein, 24 h, FVII siRNA formulation; for Lipid B ED50: Lipid B by itself
Experimental: C57BL/6 mice (Charles River Labs, MA) received either saline or siRNA in desired formulations via tail vein injection at a volume of 0.01 mL/g. At various time points post-administration, animals were anesthesized by isofluorane inhalation and blood was collected into serum separator tubes by retro orbital bleed. Serum levels of Factor VII protein were determined in samples using a chromogenic assay (Coaset Factor VII, DiaPharma Group, OH or Biophen FVII, Aniara Corporation, OH) according to manufacturer protocols. A standard curve was generated using serum collected from saline treated animals. In experiments where liver mRNA levels were assessed, at various time points post-administration, animals were sacrificed and livers were harvested and snap frozen in liquid nitrogen. Frozen liver tissue was ground into powder. Tissue lysates were prepared and liver mRNA levels of Factor VII and apoB were determined using a branched DNA assay (QuantiGene Assay, Panomics, CA).
Factor VII (FVII), a prominent protein in the coagulation cascade, is synthesized in the liver (hepatocytes) and secreted into the plasma. FVII levels in plasma can be determined by a simple, plate-based colorimetric assay. As such, FVII represents a convenient model for determining sirna-mediated downregulation of hepatocyte-derived proteins, as well as monitoring plasma concentrations and tissue distribution of the nucleic acid lipid particles and siRNA.
C57BL/6 mice (Charles River Labs, MA) received either saline or formulated siRNA via tail vein injection. At various time points after administration, serum samples were collected by retroorbital bleed. Serum levels of Factor VII protein were determined in samples using a chromogenic assay (Biophen FVII, Aniara Corporation, OH). To determine liver mRNA levels of Factor VII, animals were sacrificed and livers were harvested and snap frozen in liquid nitrogen. Tissue lysates were prepared from the frozen tissues and liver mRNA levels of Factor VII were quantified using a branched DNA assay (QuantiGene Assay, Panomics, CA).
FVII activity was evaluated in FVII siRNA-treated animals at 48 hours after intravenous (bolus) injection in C57BL/6 mice. FVII was measured using a commercially available kit for determining protein levels in serum or tissue, following the manufacturer's instructions at a microplate scale. FVII reduction was determined against untreated control mice, and the results were expressed as % Residual FVII. Two dose levels (0.05 and 0.005 mg/kg FVII siRNA) were used in the screen of each novel liposome composition.
Test formulations were initially assessed for their FVII knockdown in female 7-9 week old, 15-25 g, female C57B1/6 mice at 0.1, 0.3, 1.0 and 5.0 mg/kg with 3 mice per treatment group. All studies included animals receiving either phosphate-buffered saline (PBS, Control group) or a benchmark formulation. Formulations were diluted to the appropriate concentration in PBS immediately prior to testing. Mice were weighed and the appropriate dosing volumes calculated (10 μl/g body weight). Test and benchmark formulations as well as PBS (for Control animals) were administered intravenously via the lateral tail vein. Animals were anesthetised 24 h later with an intraperitoneal injection of Ketamine/Xylazine and 500-700 μl of blood was collected by cardiac puncture into serum separator tubes (BD Microtainer). Blood was centrifuged at 2,000×g for 10 min at 15° C. and serum was collected and stored at −70° C. until analysis. Serum samples were thawed at 37° C. for 30 min, diluted in PBS and aliquoted into 96-well assay plates. Factor VII levels were assessed using a chromogenic assay (Biophen FVII kit, Hyphen BioMed) according to manufacturer's instructions and absorbance measured in microplate reader equipped with a 405 nm wavelength filter. […]

[2] = TNS assay, vesicles cationic lipid/DSPC/CH/PEG-c-DOMG 40:10:40:10
[3] = probe 2-(p-toluidino)-6-naphthalenesulfonic acid (TNS), 1 µM final, pKa, TNS assay, vesicles cationic lipid/DSPC/CH/PEG-c-DOMG 40:10:40:10

| Structure (SMILES) | ED50 (Factor VII) | pKa [1, 3] | further results |
| --- | --- | --- | --- |
| CCCCC/C=C\C/C=C\CCCCCCCCC(CCCCCCCC/C=C\C/C=C\CCCCC)OC(=O)CCN(C)C [DLin-M-C2-DMA] | 0.60 mg/kg and 0.6 mg/kg |  | Lipid A pKa (±0.2) ([1]; Lipid A by itself, formulation 40:10:40:10 (cationic lipid:DSPC:cholesterol:PEG-DMG)): 5.64; pKa [1, 2]: 5.64; % residual FVII (Factor VII; 0.05 mg/kg siRNA): about 90%; % residual FVII (Factor VII; 0.10 mg/kg siRNA): about 90%; Lipid A ED50 (Factor VII; formulation 40:10:40:10): 0.600 mg/kg |
| CC/C=C\C/C=C\C/C=C\CCCCCCCCC1(CCCCCCCC/C=C\C/C=C\C/C=C\CC)OCC(CCN(C)C)O1 (stereo not shown) [DLen-K5-C2-DMA] | 0.05 mg/kg | 6.59 |  |
| CCCCC/C=C\C/C=C\CCCCCCCC1OC2(CCN(C)CC2)OC1CCCCCCC/C=C\C/C=C\CCCCC (stereo not shown) [ALNY-156] | <0.1 mg/kg |  | pKa [1, 2]: 6.08 |
| CCCCC/C=C\C/C=C\CCCCCCCCC(CCCCCCCC/C=C\C/C=C\CCCCC)OC(=O)C(CCN(C)C)C(=O)OC(CCCCCCCC/C=C\C/C=C\CCCCC)CCCCCCCC/C=C\C/C=C\CCCCC [TLin-MAL-C2-DMA] |  | 3.93 |  |
| CCCCC/C=C\C/C=C\CCCCCCCCC(CCCCCCCC/C=C\C/C=C\CCCCC)CN(C)CCNC(=N)N [ALNY-139] | 5.00 mg/kg | 10 |  |
| CCCCC/C=C\C/C=C\CCCCCCCCC(CCCCCCC/C=C\C/C=C\CCCCC)OC(=O)CCC[N+](C)(C)C (stereo not shown) [DLin-M-C3-TMA] |  | > 1 | Lipid B ED50 (Factor VII; formulation 40:10:40:10): >1.00 mg/kg |
| CCCCC/C=C\C/C=C\CCCCCCCCC1(CCCCCCCC/C=C\C/C=C\CCCCC)OCC(CCN(C)C)CO1 [DLin-K6S-C2-DMA] | 3.00 mg/kg | 7.25 |  |
| CCCCC/C=C\C/C=C\CCCCCCCCC1(CCCCCCCC/C=C\C/C=C\CCCCC)OCCC(CCN(C)C)O1 (stereo not shown) [DLin-K6A-C2-DMA] | 0.25 mg/kg | 6.73 |  |
| CCCCC/C=C\C/C=C\CCCCCCCCOC(=O)C(CCN(C)C)C(=O)OCCCCCCCC/C=C\C/C=C\CCCCC [DLin-MAL-C2-DMA] | 1.50 mg/kg | 6.66 |  |
| CCCCC/C=C\C/C=C\CCCCCCCCC(CCCCCCCC/C=C\C/C=C\CCCCC)ON=C(C)CCN(C)C [ALNY-149] |  |  | pKa ([1]; probe 2-(p-toluidino)-6-naphthalenesulfonic acid (TNS), 1 µM final, Lipid A pKa (±0.2), Lipid A by itself, formulation 40:10:40:10 (cationic lipid:DSPC:cholesterol:PEG-DMG)): 6.05; Lipid A ED50 (Factor VII; formulation 40:10:40:10): 0.050 mg/kg |
| CCCCC/C=C\C/C=C\CCCCCCCCC(CCCCCCCC/C=C\C/C=C\CCCCC)OC(=O)CCCNC [DLin-M-C3-MA] | 5.00 mg/kg |  |  |
| CCCCC/C=C\C/C=C\CCCCCCCCC1(CCCCCCCC/C=C\C/C=C\CCCCC)OCC(NC(=N)N)O1 (stereo not shown) [ALNY-232] |  | 10 |  |
| CC/C=C\C/C=C\C/C=C\C/C=C\C/C=C\C/C=C\CCCC1(CCC/C=C\C/C=C\C/C=C\C/C=C\C/C=C\C/C=C\CC)OCC(CCN(C)C)O1 (stereo not shown) [DDha-K5-C2-DMA] | 0.20 mg/kg | 6.09 |  |
| CCCCC/C=C\C/C=C\CCCCCCCCC1(CCCCCCCC/C=C\C/C=C\CCCCC)OCC(CCN(C)C)O1 (stereo not shown) [DLin-K5-C2-DMA] | 0.10 mg/kg |  | pKa ([1]; probe 2-(p-toluidino)-6-naphthalenesulfonic acid (TNS), 1 µM final): 6.68 |
| CCCCC/C=C\C/C=C\CCCCCCCCC1(CCCCCCCC/C=C\C/C=C\CCCCC)O[C@@H]2C3CC([C@H](N(C)C)C3)[C@@H]2O1 (stereo partly shown) [ALNY-171] | 0.25 mg/kg | 6.63 |  |
| CCCCC/C=C\C/C=C\CCCCCCCCC1(CCCCCCCC/C=C\C/C=C\CCCCC)OCC(CN(C)C)O1 (stereo not shown) [DLin-K-DMA (Biofine)] | 0.25 mg/kg | 5.94 |  |
| CCCCC/C=C\C/C=C\CCCCCCCCC1(CCCCCCCC/C=C\C/C=C\CCCCC)OCCC(CCCN(C)C)O1 (stereo not shown) [DLin-K6A-C3-DMA] | 0.70 mg/kg | 6.95 |  |
| CCCCC/C=C\C/C=C\CCCCCCCCC1(CCCCCCCC/C=C\C/C=C\CCCCC)OCC(CCCCN(C)C)CO1 [DLin-K6S-C4-DMA] | 4.00 mg/kg | 7.61 |  |

| Structure (SMILES) | ED50 (Factor VII) | pKa [1, 3] | further results |
| --- | --- | --- | --- |
| CCCCC/C=C\C/C=C\C/C=C\C/C=C\CCCCC1(CCCC/C=C\C/C=C\C/C=C\C/C=C\CCCCC)OCC(CCN(C)C)O1 (stereo not shown) [DAra-K5-C2-DMA] | 0.52 mg/kg | 6.26 |  |
| CCCCC/C=C\C/C=C\CCCCCCCCC(CCCCCCCC/C=C\C/C=C\CCCCC)OC(=O)CCCCN(C)C [DLin-M-C4-DMA] | 0.15 mg/kg |  | Lipid B pKa (±0.2) [1]: 6.93; pKa [1, 2]: 6.93; % residual FVII (Factor VII; 0.05 mg/kg siRNA): about 90%; % residual FVII (Factor VII; 0.10 mg/kg siRNA): about 90%; Lipid B ED50 (Factor VII; formulation 40:10:40:10): 0.150 mg/kg |
| CCCCC/C=C\C/C=C\CCCCCCCCC1(CCCCCCCC/C=C\C/C=C\CCCCC)OC[C@@H](CCN(C)C)O1 [DLin-K-XTC2-DMA-(R)] | 0.10 mg/kg | 6.79 |  |
| CCCCCCCCCCC(O)CN(CCN1CCN(CCN(CC(O)CCCCCCCCCC)CC(O)CCCCCCCCCC)CC1)CCN(CC(O)CCCCCCCCCC)CC(O)CCCCCCCCCC (stereo not shown) [Compound C12-200, reference compound] |  |  | Lipid B pKa (±0.2) [1]: 6.47; Lipid B ED50 (Factor VII; formulation 40:10:40:10): 0.030 mg/kg |
| CCCCC/C=C\C/C=C\CCCCCCCCC(CCCCCCCC/C=C\C/C=C\CCCCC)OC(=O)CCCN(C(C)C)C(C)C [DLin-M-C3-DIPA] | 4.50 mg/kg and 4.5 mg/kg |  |  |
| CCCCC/C=C\C/C=C\CCCCCCCCC(CCCCCCCC/C=C\C/C=C\CCCCC)OC(=O)CCCNCC [DLin-M-C3-EA] | 5.00 mg/kg |  | pKa [1, 2]: 7.62 |
| CCCCC/C=C\C/C=C\CCCCCCCCC1(CCCCCCCC/C=C\C/C=C\CCCCC)OC[C@H](CCN(C)C)O1 [DLin-K-XTC2-DMA-(S)] | 0.10 mg/kg | 6.65 |  |
| CCCCC/C=C\C/C=C\C/C=C\CCCCCC(CCCCC/C=C\C/C=C\C/C=C\CCCCC)OC(=O)CCCN(C)C [DLen(γ)-M-C3-DMA] | 0.08 mg/kg | 6.3 |  |
| CCCCC/C=C\C/C=C\CCCCCCCCC(CCCCCCCC/C=C\C/C=C\CCCCC)OC(=O)CCCN(C)CC [DLin-M-C3-MEA] | 0.03 mg/kg |  | pKa [1, 2]: 6.21 |
| CCCCC/C=C\C/C=C\CCCCCCCCC1(CCCCCCCC/C=C\C/C=C\CCCCC)OCC(CN(C)C)CO1 [DLin-K6S-C1-DMA] | 0.10 mg/kg | 5.97 |  |
| CCCCC/C=C\C/C=C\CCCCCCCCC(CCCCCCCC/C=C\C/C=C\CCCCC)CN(C)C [ALNY-181] | 0.25 mg/kg |  |  |
| CCCCC/C=C\C/C=C\C/C=C\CCCCCC(CCCCC/C=C\C/C=C\C/C=C\CCCCC)OC(=O)CCCCN(C)C [DLen(γ)-M-C4-DMA] | 0.50 mg/kg | 6.75 |  |
| CCCCC/C=C\C/C=C\CCCCCCCCC(CCCCCCCC/C=C\C/C=C\CCCCC)OC(=O)CCCN(C)C [DLin-M-C3-DMA] | 0.03 mg/kg |  | Lipid A ED50 (Factor VII; formulation 40:10:40:10): 0.030 mg/kg; Lipid A ED50 (Factor VII; formulation 50:10:38.5:1.5): 0.010 mg/kg; Lipid B ED50 (Factor VII; formulation 40:10:40:10): 0.030 mg/kg |
| CCCCC/C=C\C/C=C\CCCCCCCCC(CCCCCCCC/C=C\C/C=C\CCCCC)OC(=O)CCCCCN(C)C [DLin-M-C5-DMA] | 0.65 mg/kg |  |  |
| CCCCC/C=C\C/C=C\CCCCCCCCC(CCCCCCCC/C=C\C/C=C\CCCCC)OC(=O)CCCN(CC)CC [DLin-M-C3-DEA] | 0.30 mg/kg and 0.3 mg/kg |  | pKa [1, 2]: 6.17 |
| CCCCC/C=C\C/C=C\CCCCCCCCC1(CCCCCCCC/C=C\C/C=C\CCCCC)OCC(CN(C)C)O1 (stereo not shown) [DLin-K-DMA (CDRD)] | 0.40 mg/kg |  | pKa [1, 2]: 5.91 |
| CCCCC/C=C\C/C=C\CCCCCCCC(=O)OCC(CN(C)C)OC(=O)CCCCCCC/C=C\C/C=C\CCCCC (stereo not shown) [DLin-DAP-DMA] |  | 5.67 |  |
